# Data taken from patent US20230332232A1, “COMPOSITIONS AND METHODS FOR DIAGNOSING AND TREATING A DYSTONIA” (Duke University, priority 2020, published 2023).
# Test system: DYT1 knockin (Tor1a^delGAG/+) murine embryonic fibroblasts (MEFs)
# Experiment: Untargeted LC/MS/MS proteomics of EVs from DYT1 MEFs exposed 24 hours to drug, compared with untreated DYT1 (Het) MEFs
# Assay type: cell-based, mouse
# Experimental: Methods for isolation and purification of exosomes and extracellular vesicles (EV) were extensively reviewed. Experiments were performed to arrive at a robust and reproducible protocol. The protocol used herein is that set forth in Théry et al, 2006, which is incorporated by reference for it teaching of this protocol. This protocol involves depleting serum-derived EVs from cell culture media by overnight ultracentrifugation and exchanging media for 1% FBS EV-depleted media. Media is then collected from cells following a 24-hour conditioning period and EVs are isolated by 18-hour ultracentrifugation at 100,000 g (FIG. 1A).
# EVs were isolated from media of cultured murine embryonic fibroblasts (MEFs) prepared in-house according to protocols described by Xu 2005 from DYT1 knockin mice (Tor1a^delGAG/+) (Goodchild R E, et al. (2005) Neuron. 48:923-932) and littermate wild-type (WT) controls. The cultured MEFs from the DYT1 mice were exposed for 24 hours to Ritonavir (RTV) while the MEFs from WT mice were exposed to vehicle, ISRIB, or Salubrinal (SAL). The EVs isolated from these WT cells and DYT1 were characterized by untargeted proteomics and RNA-seq to identify differentially expressed proteins and RNAs as candidate biomarkers. Experimenter and Proteomics core staff were blinded to genotype of cell cultures throughout preparation and analysis phases.
# Samples were first normalized to 20 μg and spiked with undigested casein at a total of 40 fmol/μg, 80 fmol/μg, or 160 fmol/μg, then reduced with 10 mM dithiolthreitol for 30 minute at 80° C. and alkylated with 20 mM iodoacetamide for 30 minutes at room temperature. Next, the samples were supplemented with a final concentration of 1.2% phosphoric acid and 741 μL of S-Trap (Protifi) binding buffer (90% MeOH/100 mM […]). Proteins were trapped on the S-Trap, digested using 20 ng/μL sequencing grade trypsin (Promega) for 1 hour at 47° C., and eluted using 50 mM TEAB, followed by 0.2% FA, and lastly using 50% CAN/0.2% FA. All samples were then lyophilized to dryness and resuspended in 40 μL 1% TFA/2% acetonitrile containing 12.5 fmol/μL yeast alcohol dehydrogenase (ADH_YEAST). A QC Pool was created from 3 uL of each sample. All QC Pools were run periodically throughout the acquisition period.
# Quantitative LC/MS/MS was performed on 2 μL of each sample, using a nanoAcquity UPLC system (Waters Corp) coupled to a Thermo Orbitrap Fusion Lumos high resolution accurate mass tandem mass spectrometer (Thermo) via a nanoelectrospray ionization source. Briefly, the sample was first trapped on a Symmetry C18 20 mm×180 μm trapping column (5 μL/min at 99.9/0.1 v/v water/acetonitrile), after which the analytical separation was performed using a 1.8 μm Acquity HSS T3 C18 75 μm×250 mm column (Waters Corp.) with a 90 minute linear gradient of 5% to 30% acetonitrile with 0.1% formic acid at a flow rate of 400 nanoliters/minute (nL/min) with a column temperature of 55° C. Data collection on the Fusion Lumos mass spectrometer was performed in a data-dependent acquisition (DDA) mode of acquisition with a r=120,000 (@ m/z 200) full MS scan from m/z 375-1500 with a target AGC value of 2e5 ions. MS/MS scans were acquired at Rapid scan rate (Ion Trap) with an AGC target of 5e3 ions and a max injection time of 100 ms. The total cycle time for MS and MS/MS scans was 2 seconds. A 20 second dynamic exclusion was employed to increase depth of coverage. The total analysis cycle time for each sample injection was approximately 2 hours.
structure (smiles),measurement,setting,value
"CC(C)c1nc(CN(C)C(=O)N[C@H](C(=O)N[C@@H](Cc2ccccc2)C[C@H](O)[C@H](Cc2ccccc2)NC(=O)OCc2cncs2)C(C)C)cs1 [RTV, Ritonavir]",direction of modulated EV protein expression,"DYT1 cells, 363 proteins of the DYT1 Genotype Dependent Differences subset",modulated expression in a therapeutic direction
same,Abs Z Score Sum (Geno + RTV),"EV protein A2AVA0 Sushi, von Willebrand factor type A, EGF and pentraxin domain-containing protein 1",2.64
same,Abs Z Score Sum (Geno + RTV),EV protein Akr1b1 (P45376),8.44
same,Abs Z Score Sum (Geno + RTV),EV protein Aldh2 (P47738),25.29
same,RTV Direction Opposite dE?,EV protein Aldh2 (P47738),yes
same,Abs Z Score Sum (Geno + RTV),EV protein C1qtnf3 (Q9..),6.95
same,Abs Z Score Sum (Geno + RTV),EV protein Cnn3 (Q9DAW9),13.28
same,RTV Direction Opposite dE?,EV protein Cnn3 (Q9DAW9),yes
same,Abs Z Score Sum (Geno + RTV),EV protein Cnot1 (Q6ZQ08),12.30
same,RTV Direction Opposite dE?,EV protein Cnot1 (Q6ZQ08),yes
same,Abs Z Score Sum (Geno + RTV),EV protein Col5A1 Q88207,5.55
same,Abs Z Score Sum (Geno + RTV),EV protein Coph2 Q55029,9.40
same,Abs Z Score Sum (Geno + RTV),EV protein Cryab (P23927),5.18
same,RTV Direction Opposite dE?,EV protein Cryab (P23927),yes
same,Abs Z Score Sum (Geno + RTV),EV protein Cxadr (P97792),16.73
same,RTV Direction Opposite dE?,EV protein Cxadr (P97792),yes
same,RTV Direction Opposite dE?,EV protein D3YXG0,yes
same,RTV Direction Opposite dE?,EV protein Dars (Q922B2),yes
same,RTV Direction Opposite dE?,EV protein Dctn2 (Q99KJ8),yes
same,Abs Z Score Sum (Geno + RTV),EV protein Ddx3x (Q62167),5.09
same,Abs Z Score Sum (Geno + RTV),EV protein Ddx5 (Q61656),8.05
same,Abs Z Score Sum (Geno + RTV),EV protein Ddx39b (Q9Z1N5),16.28
same,RTV Direction Opposite dE?,EV protein Ddx39b (Q9Z1N5),yes
same,Abs Z Score Sum (Geno + RTV),EV protein Dhx9 (Q70133),9.00
same,Abs Z Score Sum (Geno + RTV),EV protein Dhx15 (Q35286),7.27
same,Abs Z Score Sum (Geno + RTV),EV protein Efemp1 Q8BPB5,8.34
same,RTV Direction Opposite dE?,EV protein Esyt1 (Q3U7R1),yes
same,Abs Z Score Sum (Geno + RTV),EV protein Exoc4 (Q35382),14.59
same,RTV Direction Opposite dE?,EV protein Exoc4 (Q35382),yes
same,Abs Z Score Sum (Geno + RTV),EV protein Extended synaptotagmin-1 (Q3..),4.61
same,Abs Z Score Sum (Geno + RTV),EV protein Fth1 P09528,12.58
same,Abs Z Score Sum (Geno + RTV),EV protein Fus (P56959),14.88
same,RTV Direction Opposite dE?,EV protein Fus (P56959),yes
same,Abs Z Score Sum (Geno + RTV),EV protein Gsto1 (Q09131),8.09
same,RTV Direction Opposite dE?,EV protein Gsto1 (Q09131),yes
same,Abs Z Score Sum (Geno + RTV),EV protein Hmen1 D3YXG0,11.51
same,RTV Direction Opposite dE?,EV protein Hnrnpf (Q9Z2X1),yes
same,RTV Direction Opposite dE?,EV protein Hnrnph1 (Q35737),yes
same,Abs Z Score Sum (Geno + RTV),EV protein Hnrnpl Q8R081,9.12
same,Abs Z Score Sum (Geno + RTV),EV protein Idh2 (P54071),26.73
same,Abs Z Score Sum (Geno + RTV),EV protein Igf1r Q60751,4.86
same,RTV Direction Opposite dE?,EV protein Impa1 (Q55023),yes
same,Abs Z Score Sum (Geno + RTV),EV protein Ipo7 (Q9EPL8),5.25
same,RTV Direction Opposite dE?,EV protein Ipo7 (Q9EPL8),yes
same,Abs Z Score Sum (Geno + RTV),EV protein Ipo11 (Q8K2V6),13.53
same,RTV Direction Opposite dE?,EV protein Ipo11 (Q8K2V6),yes
same,Abs Z Score Sum (Geno + RTV),EV protein Itgb3 (Q54890),4.87
same,RTV Direction Opposite dE?,EV protein Itgb3 (Q54890),yes
same,Abs Z Score Sum (Geno + RTV),EV protein Itm2b Q89051,17.16
same,Abs Z Score Sum (Geno + RTV),EV protein Itpa (Q9D892),23.68
same,RTV Direction Opposite dE?,EV protein Itpa (Q9D892),yes
same,Abs Z Score Sum (Geno + RTV),EV protein Kpna4 (Q35343),14.28
same,RTV Direction Opposite dE?,EV protein Kpna4 (Q35343),yes
same,Abs Z Score Sum (Geno + RTV),EV protein Lipg (Q9WVG5),11.27
same,Abs Z Score Sum (Geno + RTV),EV protein Mdk (P12025),7.88
same,RTV Direction Opposite dE?,EV protein Mdk (P12025),yes
same,Abs Z Score Sum (Geno + RTV),EV protein Mem2 P97310,7.66
same,Abs Z Score Sum (Geno + RTV),EV protein Mtap (Q9CQ65),8.12
same,RTV Direction Opposite dE?,EV protein Myo18a,yes
same,Abs Z Score Sum (Geno + RTV),EV protein Myo18a (Q9JM..),7.78
same,Abs Z Score Sum (Geno + RTV),EV protein Nap114 Q78ZA7,50.77
same,Abs Z Score Sum (Geno + RTV),EV protein Nrbp1 (Q99..),9.54
same,RTV Direction Opposite dE?,EV protein Nrbp1 (Q99J45),yes
same,Abs Z Score Sum (Geno + RTV),EV protein Otub1 (Q7TQ..),11.30
same,RTV Direction Opposite dE?,"EV protein P09528, Ferritin heavy chain",yes
same,RTV Direction Opposite dE?,"EV protein P27612, Phospholipase A-2-activating protein",yes
same,Abs Z Score Sum (Geno + RTV),EV protein P48678 Prelamin-A C,7.44
same,RTV Direction Opposite dE?,"EV protein P61089, Ubiquitin-conjugating enzyme",yes
same,Abs Z Score Sum (Geno + RTV),EV protein Pdia4 (P08003),5.92
same,RTV Direction Opposite dE?,EV protein Pdia4 (P08003),yes
same,Abs Z Score Sum (Geno + RTV),EV protein Penk (P22005),4.31
same,RTV Direction Opposite dE?,EV protein Penk (P22005),yes
same,Abs Z Score Sum (Geno + RTV),EV protein Plaa P27612,12.45
same,Abs Z Score Sum (Geno + RTV),EV protein Pld3 (Q35405),7.47
same,RTV Direction Opposite dE?,EV protein Pld3 (Q35405),yes
same,Abs Z Score Sum (Geno + RTV),EV protein Prep Q9QUR6,8.56
same,Abs Z Score Sum (Geno + RTV),EV protein Prpf8 (Q99PV0),11.34
same,Abs Z Score Sum (Geno + RTV),EV protein Psmd1 (Q3TXS7),7.84
same,Abs Z Score Sum (Geno + RTV),EV protein Pura (P42669),6.04
same,RTV Direction Opposite dE?,EV protein Pura (P42669),yes
same,RTV Direction Opposite dE?,"EV protein Q6X893, Choline transporter-like protein 1",yes
same,RTV Direction Opposite dE?,"EV protein Q8BL97, Serine arginine-rich splicing factor 7",yes
same,RTV Direction Opposite dE?,"EV protein Q8C878, NEDD8-activating enzyme E1 catalytic subunit",yes
same,Abs Z Score Sum (Geno + RTV),EV protein Q8C878 NEDD8-activating enzyme .. subunit,14.97
same,Abs Z Score Sum (Geno + RTV),EV protein Q8CG19 Latent-transforming GF β-binding protein 1,6.03
same,Abs Z Score Sum (Geno + RTV),EV protein Q9D1M4 (Eukaryotic translation .. epsilon-1),20.67
same,RTV Direction Opposite dE?,"EV protein Q9D1M4, Eukaryotic translation EF1 epsilon-1",yes
same,RTV Direction Opposite dE?,"EV protein Q9FS30, Complement C1q tumor necrosis factor-related protein 3",yes
same,RTV Direction Opposite dE?,"EV protein Q9Z1Z0, General vesicular transport factor p115",yes
same,Abs Z Score Sum (Geno + RTV),EV protein Q9Z2X1 Heterogeneous nuclear ribonucleoprotein E,12.02
same,RTV Direction Opposite dE?,"EV protein Q78ZA7, Nucelosome assembly protein 1-like 4",yes
same,Abs Z Score Sum (Geno + RTV),EV protein Q99KJ8 Dynactin subunit 2,13.94
same,Abs Z Score Sum (Geno + RTV),EV protein Q922B2 Aspartate--tRNA ligase,12.17
same,Abs Z Score Sum (Geno + RTV),EV protein Q01405 Protein transport protein .. 23A,13.20
same,Abs Z Score Sum (Geno + RTV),EV protein Q35737 Heterogeneous nuclear ribonucleoprotein H,8.31
same,Abs Z Score Sum (Geno + RTV),EV protein Q55023 Inositol monophosphatase 1,14.51
same,RTV Direction Opposite dE?,"EV protein Q60751, Insulin-like growth factor 1 receptor",yes
same,Abs Z Score Sum (Geno + RTV),EV protein Q60972 Histone-binding protein RBBP4,18.10
same,RTV Direction Opposite dE?,"EV protein Q89051, Integral membrane protein 2B",yes
same,Abs Z Score Sum (Geno + RTV),EV protein Qars (Q8BML9),13.17
same,RTV Direction Opposite dE?,EV protein Qars (Q8BML9),yes
same,Abs Z Score Sum (Geno + RTV),EV protein Rab6a (P35279),6.80
same,RTV Direction Opposite dE?,EV protein Rab6a (P35279),yes
same,RTV Direction Opposite dE?,EV protein Rbbp4 (Q60972),yes
same,Abs Z Score Sum (Geno + RTV),EV protein Rpl22 (P67984),7.66
same,RTV Direction Opposite dE?,EV protein Rpl22 (P67984),yes
same,Abs Z Score Sum (Geno + RTV),EV protein S100a11 (P50543),8.18
same,RTV Direction Opposite dE?,EV protein S100a11 (P50543),yes
same,Abs Z Score Sum (Geno + RTV),EV protein Scarb2 (Q35114),3.91
same,RTV Direction Opposite dE?,EV protein Scarb2 (Q35114),yes
same,RTV Direction Opposite dE?,EV protein Sec23a (Q01405),yes
same,Abs Z Score Sum (Geno + RTV),EV protein Sec31a (Q3..),8.41
same,Abs Z Score Sum (Geno + RTV),EV protein Shrnt2 Q9CZN7,11.93
same,Abs Z Score Sum (Geno + RTV),EV protein Slc44a1 Q6X893,3.67
same,Abs Z Score Sum (Geno + RTV),EV protein Spp1 (P10923),11.35
